“And” between values parts separate entries of the source, which are not always exact repeats. Identical values can stand only once.
Tests used:
potassium channels [1] = target: potassium channels (Cavia porcellus, UniProt A0A286XYR9); assay: Membrane hyperpolarization (MHP) assay in primary cultured guinea-pig urinary bladder (GPB) cells, DiBAC(4)3 FLIPR; assay type: cell-based; conditions: for MHP in GPB Cells Maximal Response (% P1075): maximal steady-state hyperpolarization relative to reference P1075 (assigned as 100%); for EC50: concentration that elicits 50% of the maximal response for the test sample
potassium channels (Cavia porcellus, UniProt A0A286XYR9), sequence (A0A286XYR9 1-1546): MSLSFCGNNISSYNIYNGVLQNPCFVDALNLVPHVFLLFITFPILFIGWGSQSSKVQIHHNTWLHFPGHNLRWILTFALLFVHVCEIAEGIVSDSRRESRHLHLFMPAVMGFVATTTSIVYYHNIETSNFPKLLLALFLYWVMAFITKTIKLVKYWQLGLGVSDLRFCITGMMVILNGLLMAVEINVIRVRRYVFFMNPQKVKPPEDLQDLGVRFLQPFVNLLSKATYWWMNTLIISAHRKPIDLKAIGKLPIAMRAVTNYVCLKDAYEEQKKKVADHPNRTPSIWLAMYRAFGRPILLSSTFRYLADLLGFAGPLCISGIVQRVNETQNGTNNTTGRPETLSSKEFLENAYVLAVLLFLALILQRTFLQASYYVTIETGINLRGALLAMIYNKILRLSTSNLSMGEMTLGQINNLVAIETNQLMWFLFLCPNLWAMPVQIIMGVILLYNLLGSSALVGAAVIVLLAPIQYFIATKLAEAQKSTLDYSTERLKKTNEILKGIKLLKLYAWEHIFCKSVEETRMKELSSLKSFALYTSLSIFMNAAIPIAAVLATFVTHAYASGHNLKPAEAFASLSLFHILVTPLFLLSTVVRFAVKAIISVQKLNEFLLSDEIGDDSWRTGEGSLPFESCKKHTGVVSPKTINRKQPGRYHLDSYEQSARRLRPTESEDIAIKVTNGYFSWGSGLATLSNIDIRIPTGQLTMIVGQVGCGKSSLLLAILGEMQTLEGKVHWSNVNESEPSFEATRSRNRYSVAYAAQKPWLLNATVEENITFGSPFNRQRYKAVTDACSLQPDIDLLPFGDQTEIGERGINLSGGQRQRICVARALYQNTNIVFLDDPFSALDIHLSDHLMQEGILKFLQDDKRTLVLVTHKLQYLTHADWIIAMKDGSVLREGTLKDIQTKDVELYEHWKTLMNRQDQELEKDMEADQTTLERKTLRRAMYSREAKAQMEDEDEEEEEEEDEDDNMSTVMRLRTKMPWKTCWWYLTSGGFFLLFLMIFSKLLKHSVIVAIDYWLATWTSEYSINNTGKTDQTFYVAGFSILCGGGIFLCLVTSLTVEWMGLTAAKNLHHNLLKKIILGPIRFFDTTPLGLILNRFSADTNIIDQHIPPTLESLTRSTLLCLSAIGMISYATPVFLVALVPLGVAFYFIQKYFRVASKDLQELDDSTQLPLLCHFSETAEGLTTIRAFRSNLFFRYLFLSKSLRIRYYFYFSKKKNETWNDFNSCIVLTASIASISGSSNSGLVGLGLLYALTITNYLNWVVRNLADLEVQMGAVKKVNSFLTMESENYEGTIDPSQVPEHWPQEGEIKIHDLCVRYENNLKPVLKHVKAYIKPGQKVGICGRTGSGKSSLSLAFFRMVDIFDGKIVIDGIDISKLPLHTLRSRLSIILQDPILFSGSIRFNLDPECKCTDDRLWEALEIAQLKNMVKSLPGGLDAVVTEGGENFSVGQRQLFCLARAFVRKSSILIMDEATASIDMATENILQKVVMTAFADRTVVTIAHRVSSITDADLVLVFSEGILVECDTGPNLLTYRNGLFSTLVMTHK
potassium channels (Cavia porcellus, UniProt A0A286XYR9), sequence (Q9JHJ9 whole entry partner): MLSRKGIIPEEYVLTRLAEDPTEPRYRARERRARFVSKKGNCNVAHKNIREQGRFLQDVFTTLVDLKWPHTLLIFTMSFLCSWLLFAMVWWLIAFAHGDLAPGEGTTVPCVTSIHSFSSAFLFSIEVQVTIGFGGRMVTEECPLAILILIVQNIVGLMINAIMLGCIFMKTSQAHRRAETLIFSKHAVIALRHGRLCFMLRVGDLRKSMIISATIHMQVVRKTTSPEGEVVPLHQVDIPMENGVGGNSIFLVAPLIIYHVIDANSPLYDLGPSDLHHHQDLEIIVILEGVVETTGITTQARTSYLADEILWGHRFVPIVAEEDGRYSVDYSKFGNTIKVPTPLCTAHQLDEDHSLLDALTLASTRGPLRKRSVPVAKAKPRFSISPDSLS
Experimental: Determination of Potassium Channel Opening Activity Membrane Hyperpolarization Assays Compounds were evaluated for potassium channel opening activity using the rat thoracic aorta smooth muscle AI 0 cell line or primary cultured guinea-pig urinary bladder (GPB) cells. The AI0 cell line was purchased from the American Type Culture Collection (Rockville, MD; Cat # 30-2002). […] Louis, MO) and 0.2 mg/mL ronase (Calbiochem, La Jolla, CA) with continuous stirring in a cell incubator for 30 minutes. The mixture was then centrifuged at 1300 x g for 5 minutes, and the pellet resuspended in Dulbecco's PBS (GIBCO, Gaithersburg, MD) and recentrifuged to remove residual enzyme. […] Cells were confirmed to be of smooth muscle type by cytoskeletal staining using a monoclonal mouse anti human-a-smooth muscle actin (Biomeda, Foster City, CA). Functional activity at potassium channels was measured by evaluating changes in membrane potential using the bis-oxonol dye DiBAC(4)3 (Molecular Probes) in a 96-well cell-based kinetic assay system, Fluorescent Imaging Plate Reader (FLIPR) (K.S. Schroeder et al., J. Biomed. Screen., v. I pp. 75-81 (1996)). DiBAC(4)3 is an anionic potentiometric probe which partitions between cells and extracellular solution in a membrane potential-dependent manner. With increasing membrane potential (for example, K+depolarization), the probe further partitions into the cell; this is measured as an increase in fluorescence due to dye interaction with intracellular lipids and proteins. Conyersely, decreasing membrane potential (hyperpolarization by potassium channel openers) evokes a decrease in fluorescence. […] HEPES, 20; NaCl, 120; KCl, 2; CaC'2, 2; MgCl2, 1; glucose, 5; pH 7.4 at 25 ° C.) containing 5 µM DiBAC(4)3 and incubated with […] of the buffer in a cell incubator for 30 minutes at 37 OC to ensure dye distribution across the membrane. After recording the baseline fluorescence for 5 minutes, the reference or test compounds, prepared at 10 times the concentration in the assay buffer, were added directly to the wells. Changes in fluorescence were monitored for an additional 25 minutes. […] Pharmacol., v. 43 pp. 474-481 (1993)). Routinely, five concentrations of […] or test compounds (log or half-log dilutions) were evaluated and the maximal steady-state hyperpolarization values (expressed as % relative to […]) plotted as a function of concentration. […] The maximal response of each compound (expressed as % relative to […]) is reported.

potassium channels [2] = target: potassium channels (Sus scrofa, UniProt F1SR11); assay: Functional potassium channel opening activity in isolated Landrace pig bladder strips (field-stimulated twitch); conditions: for Landrace Pig Bladder Index: ED50 for P1075 divided by ED50 for the test agonist, averaged over tissues; for Landrace Pig Bladder pD2: negative logarithm of ED50; for Emax: pig
Outline: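 Landrace pig bladder strips with the mucosa removed were field-stimulated (0.05 Hz, 0.5 ms, 20 V) in Krebs Ringer bicarbonate containing propranolol, and primed with 80 mM KCl. Cumulative concentration-response curves gave maximal efficacy relative to a reference potassium channel opener, pD2, and a potency index (reference ED50/test ED50) averaged across tissues.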

[3] = maximal efficacy relative to P1075, field stimulation 0.05Hz, 0.5 milli-seconds at 20 volts

Molecule | MHP in GPB Cells Maximal Response (% P1075) (potassium channels [1]) | Landrace Pig Bladder Index (potassium channels [2]) | Landrace Pig Bladder pD2 (potassium channels [2]) | Emax (potassium channels [2]; [3]) [%] | melting point [°C] | EC50 (potassium channels [1]) [µM] | Landrace Pig Bladder Efficacy (% P1075) (potassium channels [2]; [3])
8-(3-bromo-4-fluorophenyl)-6-trifluoromethyl-5,8-dihydrothiopyrano[3 .2-b]pyridine, 1,1-dioxide [Example 159] | 100 % P1075 | – | – | – | – | – | –
O=S1(=O)CCC2=C1C(c1ccc3nonc3c1)C1=C(CCS1(=O)=O)N2 [Example 123] | – | 0.0047 | 4.5 | 98 | > 260 | – | –
O=[N+]([O-])c1cccc(C2C3=C(CCS3(=O)=O)NC3=C2S(=O)(=O)CC3)c1 [Example 73] | – | 0.0022 | 4.4 | 98 | 248 to 252 | – | –
N#Cc1cccc(C2C3=C(CCC3=O)NC3=C2S(=O)(=O)CC3)c1 (stereo not shown) [Example 52, 8-(3-cyanophenyl)-2,3,4,5,6,8-hexahydro-7H-cyclopenta[b]thieno [2.3-e]pyridin-7-one, 1,1-dioxide] | – | 0.018 | 5.6 | 100 | 156 to 176 | – | –
O=S1(=O)CCC2=C1C(c1ccc(Cl)c(Cl)c1)C1=C(CCS1(=O)=O)N2 [Example 77] | – | 0.046 | 5.5 | 93 | > 260 | – | –
O=S1(=O)CCC2=C1C(c1ccc(Br)c(Br)c1)C1=C(CCS1(=O)=O)N2 [Example 124] | – | 0.025 | 5.3 | 99 | > 260 | – | –
O=S1(=O)CCCC2=C1C(c1ccc(F)c(Br)c1)C1=C(CCCS1(=O)=O)N2 [Example 54, 10-(3-bromo-4-fluorophenyl)-3,4,6,7,8,10-hexahydro-2H,5H-dithiopyrano [3,2-b:2′,3′-e]pyridine, 1,1,9,9-tetraoxide] | 107 % P1075 and 133 % P1075 | 0.015 | 4.9 | – | – | – | 89
O=C1CCC2=C1C(c1ccc([N+](=O)[O-])s1)C1=C(CCS1(=O)=O)N2 (stereo not shown) [Example 70] | – | 0.15 | 6.3 | 100 | 251 to 254 | – | –
O=S1(=O)CCC2=C1C(c1ccc(Cl)c(C(F)(F)F)c1)C1=C(CCS1(=O)=O)N2 [Example 122] | – | 0.012 | 4.8 | 94 | > 260 | – | –
O=S1(=O)CCC2=C1C(c1ccc(F)c(C(F)(F)F)c1)C1=C(CCS1(=O)=O)N2 [Example 65] | – | 0.048 | 6.0 | 100 | > 260 | – | –

Now from value to molecule, other results behind:

MHP in GPB Cells Maximal Response (% P1075) (potassium channels [1]) | Landrace Pig Bladder Index (potassium channels [2]) | Landrace Pig Bladder pD2 (potassium channels [2]) | Emax (potassium channels [2]; [3]) [%] | melting point [°C] | EC50 (potassium channels [1]) [µM] | Molecule | Landrace Pig Bladder Efficacy (% P1075) (potassium channels [2]; [3])
– | 0.60 | 6.9 | 100 | > 260 | – | O=C1CCC2=C1C(c1ccc(Cl)c(Cl)c1)C1=C(CCS1(=O)=O)N2 (stereo not shown) [Example 60, 8-(3 4-dichlorophenyl)-2,3 4,5,6,8-hexahydro-7H-cyclopenta[b]thieno [2,3-e]pyridin-7-one, 1,1-dioxide] | –
– | 0.16 | 6.3 | 100 | > 270 | – | CC1(C)CCC2=C(C1=O)C(c1ccc(F)c(Br)c1)C1=C(CCS1(=O)=O)N2 (stereo not shown) [Example 116, 9-(3-bromo-4-fluorophenyl)-7,7-dimethyl-2,3,5,6,7,9-hexahydrothieno[3.2-b]quinolin-8(4H)-one, 1,1-dioxide] | –
51 % P1075 | – | – | – | – | 10 | CC1(C)CCC2=C(C1=O)C(c1cccc([N+](=O)[O-])c1)C1=C(CCS1(=O)=O)N2 (stereo not shown) [Example 189, 7,7-dimethyl-9-(3-nitrophenyl)-2,3,5,6,7,,9-hexahydrothieno[3.2-b]guinolin-8(4H)-one 1,1-dioxide] | –
– | 0.39 | 6.4 | 91 | > 260 | – | O=C1CCCC2=C1C(c1ccc(F)c(Cl)c1)C1=C(CCS1(=O)=O)N2 (stereo not shown) [Example 81, 9-(3-chloro-4-fluorophenyl)-2,3,5,6,7,9-hexahydrothieno [3.2-b]quinolin-8(4H)-one, 1 1-dioxide] | –
– | 0.88 | 7.1 | 97 | > 260 | – | O=C1CCC2=C1C(c1ccc(F)c(Br)c1)C1=C(CCS1(=O)=O)N2 (stereo not shown) [Example 56, 8-(3-bromo-4-fluorophenyl)-2,3,4,5,6,8-hexahydro-7H-cyclopenta[b]thieno[2,3-e]pyridin-7-one, 1,1-dioxide] | –
– | 0.36 | 6.6 | 100 | > 250 | – | O=C1CCCC2=C1C(c1ccc(F)c(Cl)c1)C1=C(CCS1(=O)=O)N2 (single isomer, unassigned; (+)) [Example 109, (+)-9-(3-chloro-4-fluorophenyl)-2,3,5,6,7,9-hexahydrothieno[3,2-b]quinolin-8(4H)-one, 1,1-dioxide] | –
– | 0.12 | 6.3 | 94 | > 260 | – | CC(=O)C1=C(C)NC2=C(C1c1ccc(F)c(Br)c1)S(=O)(=O)CCC2 (stereo not shown) [Example 66, 1-[8-(3-bromo-4-fluorophenyl)-3,4,5,8-tetrahydro-6-methyl-1.-dioxido-2H-thiopyrano[3,2-b]pyridin-7-yl)lethan-1-one] | –
92 % P1075 | – | – | – | – | 1.2 | CC1(C)CCC2=C(C1=O)C(c1cc(Br)c(O)c(Br)c1)C1=C(CCS1(=O)=O)N2 (stereo not shown) [Example 207] | –
12 % P1075 | – | – | – | – | > 10 | CC1(C)CCC2=C(C1=O)C(c1cc(Cl)cc(Br)c1O)C1=C(CCS1(=O)=O)N2 (stereo not shown) [Example 199, 9-(3-bromo-5-chloro-2-hydroxyphenyl)-7,7-dimethyl-2,3.5.6,7,9-hexahydrothieno[3.2-b]quinolin-8(4H)-one 1,1-dioxide] | –
– | 0.014 | 5.1 | 98 | 220 to 223 | – | CC1=C(C(=O)O)C(c2ccc(F)c(Br)c2)C2=C(CCS2(=O)=O)N1 (stereo not shown) [Example 106, 7-(3-bromo-4-fluorophenyl)-5-methyl-2,3,4,7-tetrahydrothieno[3.2-b]pyridine-6-carboxylic acid, 1,1-dioxide] | –
– | 0.081 | 6.1 | 100 | > 260 | – | O=S1(=O)CCC2=C1C(c1ccc(F)c(Cl)c1)C1=C(CCS1(=O)=O)N2 [Example 74] | –
– | 0.42 | 6.8 | 100 | 254 | – | O=C1CCC2=C1C(c1ccc(F)c(C(F)(F)F)c1)C1=C(CCS1(=O)=O)N2 (stereo not shown) [Example 57, 8-(4-fluoro-3-trifluoromethylphenyl)-2,3,4,5,6,8-hexahydro-7H-cyclopenta[b]thieno [2.3-e]pyridin-7-one, 1,1-dioxide] | –

Source: patent US6593335B1, “Potassium channel openers” (Abbott Laboratories, priority 1997, dated 2003)
